Data on 27 compounds can be found in US7928107B2, “Quinazolines useful as modulators of ion channels” (Vertex Pharmaceuticals Incorporated, priority 2004, dated 2011).

The target in the experiment is NaV 1.8 channel (Homo sapiens, UniProt Q9Y5Y9). Kind of experiment: Activity against NaV 1.8 channel (optical membrane potential assay). In kind it is cell-based. Here is the method: Compounds of the invention are useful as antagonists of voltage-gated sodium ion channels. Antagonist properties of test compounds were assessed as follows. Cells expressing the NaV of interest were placed into microtiter plates. After an incubation period, the cells were stained with fluorescent dyes sensitive to the transmembrane potential. The test compounds were added to the microtiter plate. The cells were stimulated with either a chemical or electrical means to evoke a NaV dependent membrane potential change from unblocked channels, which was detected and measured with trans-membrane potential-sensitive dyes. Antagonists were detected as a decreased membrane potential response to the stimulus. The optical membrane potential assay utilized voltage-sensitive FRET sensors described by Gonzalez and Tsien (See, Gonzalez, J. E. and R. Y. Tsien (1995) “Voltage sensing by fluorescence resonance energy transfer in single cells” Biophys J 69(4): 1272-80, and Gonzalez, J. E. and R. Y. Tsien (1997) “Improved indicators of cell membrane potential that use fluorescence resonance energy transfer” Chem Biol 4(4): 269-77) in combination with instrumentation for measuring fluorescence changes such as the Voltage/Ion Probe Reader (VIPR®) (See, Gonzalez, J. E., K. Oades, et al. (1999) “Cell-based assays and instrumentation for screening ion-channel targets” Drug Discov Today 4(9): 431-439).
NaV 1.8 channel, sequence (Q9Y5Y9 whole entry): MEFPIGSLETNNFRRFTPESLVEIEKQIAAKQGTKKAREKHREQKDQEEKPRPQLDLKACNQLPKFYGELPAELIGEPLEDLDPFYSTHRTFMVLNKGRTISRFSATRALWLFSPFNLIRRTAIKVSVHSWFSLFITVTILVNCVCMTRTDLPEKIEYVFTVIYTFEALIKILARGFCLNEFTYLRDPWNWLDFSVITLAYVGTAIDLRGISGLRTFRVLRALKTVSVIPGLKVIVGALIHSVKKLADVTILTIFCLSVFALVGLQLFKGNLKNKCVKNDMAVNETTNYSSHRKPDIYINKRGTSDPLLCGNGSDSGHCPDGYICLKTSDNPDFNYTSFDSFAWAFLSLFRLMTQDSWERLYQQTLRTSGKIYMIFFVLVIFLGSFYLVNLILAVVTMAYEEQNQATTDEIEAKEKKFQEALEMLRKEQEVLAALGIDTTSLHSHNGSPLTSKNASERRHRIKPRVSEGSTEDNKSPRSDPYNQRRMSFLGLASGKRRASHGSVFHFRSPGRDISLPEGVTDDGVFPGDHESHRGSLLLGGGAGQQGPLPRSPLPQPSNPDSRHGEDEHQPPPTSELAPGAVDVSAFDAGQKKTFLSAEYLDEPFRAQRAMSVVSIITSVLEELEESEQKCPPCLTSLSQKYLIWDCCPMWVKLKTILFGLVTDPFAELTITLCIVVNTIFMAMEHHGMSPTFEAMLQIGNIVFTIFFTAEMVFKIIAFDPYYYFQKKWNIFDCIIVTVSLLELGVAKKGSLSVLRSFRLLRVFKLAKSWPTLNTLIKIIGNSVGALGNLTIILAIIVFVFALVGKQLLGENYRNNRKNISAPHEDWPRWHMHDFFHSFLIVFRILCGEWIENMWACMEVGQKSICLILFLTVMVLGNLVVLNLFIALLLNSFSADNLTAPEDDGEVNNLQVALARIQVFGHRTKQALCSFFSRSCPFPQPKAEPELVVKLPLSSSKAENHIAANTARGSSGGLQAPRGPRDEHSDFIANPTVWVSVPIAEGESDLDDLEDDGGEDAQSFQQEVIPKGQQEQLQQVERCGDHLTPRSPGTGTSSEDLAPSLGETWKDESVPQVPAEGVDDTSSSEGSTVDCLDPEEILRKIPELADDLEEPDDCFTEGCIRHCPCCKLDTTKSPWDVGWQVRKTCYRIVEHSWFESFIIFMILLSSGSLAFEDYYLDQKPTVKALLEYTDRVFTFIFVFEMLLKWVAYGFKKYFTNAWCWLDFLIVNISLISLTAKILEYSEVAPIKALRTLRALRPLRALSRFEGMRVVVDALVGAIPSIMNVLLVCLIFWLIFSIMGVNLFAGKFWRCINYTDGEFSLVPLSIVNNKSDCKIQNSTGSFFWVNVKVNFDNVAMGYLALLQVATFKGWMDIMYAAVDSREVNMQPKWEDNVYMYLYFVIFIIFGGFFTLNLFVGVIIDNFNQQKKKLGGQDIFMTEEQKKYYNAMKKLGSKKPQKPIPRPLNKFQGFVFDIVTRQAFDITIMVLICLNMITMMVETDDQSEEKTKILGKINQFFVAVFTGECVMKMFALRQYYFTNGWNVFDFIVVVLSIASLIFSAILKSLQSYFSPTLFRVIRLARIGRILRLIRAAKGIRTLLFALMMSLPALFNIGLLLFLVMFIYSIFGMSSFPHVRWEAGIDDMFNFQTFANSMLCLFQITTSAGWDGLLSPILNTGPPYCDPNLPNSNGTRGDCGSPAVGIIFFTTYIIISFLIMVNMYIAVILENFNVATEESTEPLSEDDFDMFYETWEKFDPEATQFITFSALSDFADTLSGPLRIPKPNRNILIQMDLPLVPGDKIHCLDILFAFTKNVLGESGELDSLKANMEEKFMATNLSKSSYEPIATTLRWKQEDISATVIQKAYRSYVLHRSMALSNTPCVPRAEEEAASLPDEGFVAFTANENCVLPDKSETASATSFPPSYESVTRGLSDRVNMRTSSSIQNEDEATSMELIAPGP
24 hours before the assay on VIPR, CHO cells endogenously expressing a NaV1.2 type voltage-gated NaV are seeded in 96-well poly-lysine coated plates at 60,000 cells per well. Other subtypes are performed in an analogous mode in a cell line expressing the NaV of interest. • 1) On the day of the assay, medium is aspirated and cells are washed twice with 225 μL of Bath Solution #2 (BS#2). • 2) A 15 uM CC2-DMPE solution is prepared by mixing 5 mM coumarin stock solution with 10% Pluronic 127 1:1 and then dissolving the mix in the appropriate volume of BS#2. • 3) After bath solution is removed from the 96-well plates, the cells are loaded with 80 μL of the CC2-DMPE solution. Plates are incubated in the dark for 30 minutes at room temperature. • 4) While the cells are being stained with coumarin, a […] solution in BS#2 is prepared. In addition to DiSBAC2(3), this solution should contain 0.75 mM ABSCl and […] (prepared from 10 mM EtOH stock, Sigma #V-5754). • 5) After 30 minutes, CC2-DMPE is removed and the cells are washed twice with 225 μL of BS#2. As before, the residual volume should be 40 μL. • 6) Upon removing the bath, the cells are loaded with 80 μL of the DiSBAC2(3) solution, after which test compound, dissolved in DMSO, is added to achieve the desired test concentration to each well from the drug addition plate and mixed thoroughly. The volume in the well should be roughly 121 μL. The cells are then incubated for 20-30 minutes. • 7) Once the incubation is complete, the cells are ready to be assayed on VIPR® with a sodium add back protocol. 120 μL of Bath solution #1 is added to stimulate the NaV dependent depolarization. […] was used as an antagonist positive control for block of the NaV channel.
Data are analyzed and reported as normalized ratios of background-subtracted emission intensities measured in the 460 nm and 580 nm channels. Background intensities are then subtracted from each assay channel. Background intensities are obtained by measuring the emission intensities during the same time periods from identically treated assay wells in which there are no cells. The response as a function of time is then reported as the ratios obtained using the following formula: […]
The data is further reduced by calculating the initial (Ri) and final (Rf) ratios. These are the average ratio values during part or all of the pre-stimulation period, and during sample points during the stimulation period. The response to the stimulus R=Rf/Ri is then calculated. […]

Take `Cc1ccc2c(N3CCC(NC(=O)COC4CC(C)CCC4C(C)C)CC3)nc(-c3ccccc3O)nc2c1` (stereo not drawn) [Example 222, 2-(2-Isopropyl-5-methylcyclohexyloxy)-N-(1-(2-(2-hydroxyphenyl)-7-methylquinazolin-4-yl)piperidin-4-yl)acetamide]: the IC50 (commonly the point on the concentration scale where inhibition reaches its midpoint) is above 10 µM.

On to `Cc1ccc2c(N3CCC(NC(=O)C(O)CC(C)C)CC3)nc(-c3ccccc3O)nc2c1` (stereo not drawn) [Example 265], for which the half-maximal inhibitory concentration (IC50) is above 10 µM.

As to `CNCC(=O)N(C)CC(=O)O[C@H](CC(C)C)C(=O)N1CCN(c2nc(-c3ccccc3O)nc3cc(C)ccc23)CC1` [Example 169, (R)-[Methyl-(2-methylamino-acetyl)-amino]-acetic acid 1-{4-[2-(2-hydroxy-phenyl)-7-methyl-quinazolin-4-yl]-piperazine-1-carbonyl}-3-methyl-butyl ester], the IC50 was above 10 µM.

As for `Cc1ccc2c(N3CCC(NC(=O)[C@@H]4CCCO4)CC3)nc(-c3ccccc3O)nc2c1` [Example 277], the IC50 was in the range of 2 to 10 µM.

On to `Cc1ccc2c(N3CCN(C(=O)[C@H](O)CC(C)C)CC3)nc(-c3c(O)cccc3F)nc2c1` [Example 147, (R)-1-(4-(2-(2-Fluoro-6-hydroxyphenyl)-7-methylquinazolin-4-yl)piperazin-1-yl)-2-hydroxy-4-methylpentan-1-one], for which the IC50 was 2 to 10 µM.

For the compound `Cc1ccc2c(N3CCN(C(=O)C(O)CCl)CC3)nc(-c3ccccc3O)nc2c1` (stereo not drawn) [Example 179, 3-Chloro-2-hydroxy-1-(4-(2-(2-hydroxyphenyl)-7-methylquinazolin-4-yl)piperazin-1-yl)propan-1-one], the IC50 is above 10 µM.

`Cc1ccc2c(N3CCC(NC(=O)OCC4CCCCO4)CC3)nc(-c3ccccc3O)nc2c1` (stereo not drawn) [Example 219, {1-[2-(2-Hydroxy-phenyl)-7-methyl-quinazolin-4-yl]-piperidin-4-yl}-carbamic acid tetrahydro-pyran-2-ylmethyl ester]: the half-inhibitory concentration (IC50) was below 2 µM.

Turning to `CCCCC(O)C(=O)N1CCN(c2nc(-c3ccccc3O)nc3ccccc23)CC1` (stereo not drawn) [Example 159, 2-Hydroxy-1-(4-(2-(2-hydroxyphenyl)quinazolin-4-yl)piperazin-1-yl)hexan-1-one], the IC50 was 2 to 10 µM.

Take `Cc1ccc2c(N3CCN(C(=O)O[C@@H]4CCOC4)[C@@H](CO)C3)nc(-c3ccccc3O)nc2c1` [Example 149, (2R)-(R)-Tetrahydrofuran-3-yl 2-(hydroxymethyl)-4-(2-(2-hydroxyphenyl)-7-methylquinazolin-4-yl)piperazine-1-carboxylate]: the IC50 was above 10 µM.

Take `Cc1ccc2c(N3CC[C@@H](NC(=O)OCc4cccc5c4OCO5)C3)nc(-c3ccccc3O)nc2c1` [Example 321, (Benzo[d][1,3]dioxol-7-yl)methyl (R)-1-(2-(2-hydroxyphenyl)-7-methylquinazolin-4-yl)pyrrolidin-3-ylcarbamate]: the IC50 was above 10 µM.

In the case of `Cc1ccc2c(N3CC[C@@H](NC(=O)C4CCOCC4)C3)nc(-c3ccccc3O)nc2c1` [Example 316, Tetrahydro-N—((R)-1-(2-(2-hydroxyphenyl)-7-methylquinazolin-4-yl)pyrrolidin-3-yl)-2H-pyran-4-carboxamide], the IC50 is above 10 µM.

For `C[C@H](O)CC(=O)N1CCN(c2nc(-c3ccccc3O)nc3ccccc23)CC1` [Example 109, (S)-3-Hydroxy-1-(4-(2-(2-hydroxyphenyl)quinazolin-4-yl)piperazin-1-yl)butan-1-one], the concentration for half-maximal inhibition (IC50) lay in the range of 2 to 10 µM.

Regarding `Cc1ccc2c(N3CC[C@@H](NC(=O)C(O)c4ccc(F)cc4)C3)nc(-c3ccccc3O)nc2c1` (stereo partly drawn) [Example 360, 2-(4-Fluorophenyl)-2-hydroxy-N—((R)-1-(2-(2-hydroxyphenyl)-7-methylquinazolin-4-yl)pyrrolidin-3-yl)acetamide], the concentration for half-maximal inhibition (IC50) was above 10 µM.

`Cc1ccc2c(N3CCN(C(=O)C(C)(C)C)CC3)nc(-c3ccccc3O)nc2c1` [Example 196]: the 50% inhibitory concentration (IC50) was below 2 µM.

Regarding `Cc1ccc2c(N3CC[C@@H](CNC(=O)OCc4ccccc4)C3)nc(-c3ccccc3O)nc2c1` [Example 363, Benzyl ((S)-1-(2-(2-hydroxyphenyl)-7-methylquinazolin-4-yl)pyrrolidin-3-yl)methylcarbamate], the IC50 was 2 to 10 µM.

As for `Cc1ccc2c(N3CCC(NC(=O)OCc4cccc5c4OCO5)CC3)nc(-c3ccccc3O)nc2c1` [Example 229, (Benzo[d][1,3]dioxol-7-yl)methyl 1-(2-(2-hydroxyphenyl)-7-methylquinazolin-4-yl)piperidin-4-ylcarbamate], the IC50 was above 10 µM.

As to `O=C(N[C@@H]1CCN(c2nc(-c3ccccc3O)nc3ccc(F)cc23)C1)OCC1CCCCO1` (stereo partly drawn) [Example 339, (Tetrahydro-2H-pyran-2-yl)methyl (R)-1-(6-fluoro-2-(2-hydroxyphenyl)quinazolin-4-yl)pyrrolidin-3-ylcarbamate], the IC50 lay within 2 to 10 µM.

Consider `CC(O)(C(=O)N1CCN(c2nc(-c3ccccc3O)nc3ccccc23)CC1)C(F)(F)F` (stereo not drawn) [Example 178, 2-(Trifluoromethyl)-2-hydroxy-1-(4-(2-(2-hydroxyphenyl)quinazolin-4-yl)piperazin-1-yl)propan-1-one], for which the half-maximal inhibitory concentration (IC50) was above 10 µM.

On to `Cc1ccc2c(N3CC[C@@H](NC(=O)OCc4ccccc4)C3)nc(-c3ccccc3O)nc2c1` [Example 309, (R)-{1-[2-(2-Hydroxy-phenyl)-7-methyl-quinazolin-4-yl]-pyrrolidin-3-yl}-carbamic acid benzyl ester], for which the concentration for half-maximal inhibition (IC50) was below 2 µM.

Regarding `O=C(NC1CCN(c2nc(-c3c(O)cccc3Cl)nc3ccccc23)CC1)[C@H]1CCCO1` [Example 213, (2R)—N—(1-(2-(2-Chloro-6-hydroxyphenyl)quinazolin-4-yl)piperidin-4-yl)-tetrahydrofuran-2-carboxamide], the IC50 is above 10 µM.

As to `CC[C@H](O)C(=O)NC1CCN(c2nc(-c3ccccc3O)nc3ccccc23)CC1` [Example 237, (2S)-2-Hydroxy-N-(1-(2-(2-hydroxyphenyl)quinazolin-4-yl)piperidin-4-yl)butanamide], the concentration for half-maximal inhibition (IC50) is above 10 µM.

Consider `CSCCC(O)C(=O)N1CCN(c2nc(-c3ccccc3O)nc3cc(C)ccc23)CC1` (stereo not drawn) [Example 153, 2-Hydroxy-1-(4-(2-(2-hydroxyphenyl)-7-methylquinazolin-4-yl)piperazin-1-yl)-4-(methylthio)butan-1-one], for which the half-maximal inhibitory concentration (IC50) is 2 to 10 µM.

Consider `C#CC(O)C(=O)N1CCN(c2nc(-c3ccccc3O)nc3cc(C)ccc23)CC1` (stereo not drawn) [Example 158, 2-Hydroxy-1-(4-(2-(2-hydroxyphenyl)-7-methylquinazolin-4-yl)piperazin-1-yl)but-3-yn-1-one], for which the concentration for half-maximal inhibition (IC50) was above 10 µM.

Take `Cc1ccc2c(N3CCN(C(=O)[C@H](O)CC(C)(C)C)CC3)nc(-c3c(O)cccc3F)nc2c1` [Example 135, (R)-1-(4-(2-(2-Fluoro-6-hydroxyphenyl)-7-methylquinazolin-4-yl)piperazin-1-yl)-2-hydroxy-4,4-dimethylpentan-1-one]: the IC50 was below 2 µM.

For the compound `Cc1ccc2c(N3CCC(NC(=O)OCc4cccnc4)CC3)nc(-c3ccccc3O)nc2c1` [Example 227, (Pyridin-3-yl)methyl 1-(2-(2-hydroxyphenyl)-7-methylquinazolin-4-yl)piperidin-4-ylcarbamate], the IC50 is above 10 µM.

Consider `Cc1ccc2c(N3CCCC(CNC(=O)C4CC4)C3)nc(-c3ccccc3O)nc2c1` (stereo not drawn) [Example 212, N—((1-(2-(2-Hydroxyphenyl)-7-methylquinazolin-4-yl)piperidin-3-yl)methyl)cyclopropanecarboxamide], for which the IC50 was above 10 µM.

For `CCOC(=O)NC[C@@H]1CCCN(c2nc(-c3c(O)cccc3F)nc3cc(C)ccc23)C1` [Example 262, Ethyl ((S)-1-(2-(2-fluoro-6-hydroxyphenyl)-7-methylquinazolin-4-yl)piperidin-3-yl)methylcarbamate], the IC50 fell in the range of 2 to 10 µM.
